According to patent publication US20100261682A1, “Method and Means for the Treatment of Cachexia” (Bioneris AB, priority 2007, published 2010):

How the values were obtained:
[1] = system: Ang II induced protein degradation in murine myotubes; assay: Ang II-induced protein degradation in murine myotubes; type: cell-based; details: AT 100 μM, 2 h prior to addition of Ang II
Experimental: To investigate the mechanism by which AT protects lean body mass in cachexia, further experiments were carried out in vitro using murine myotubes as a surrogate model of skeletal muscle. Incubation with either PIF or angiotensin II (Ang II) induced protein degradation with a characteristic bell-shaped dose-response curve as previously reported (Smith et al., 2004, Br. J. Cancer, and Tisdale et al., 2006, Cell. Sig) with the maximal effect of PIF at 4.2 nM and Ang II at 0.5 μM (FIGS. 5 and 8).

[2] = system: PIF-induced chymotrypsin-like enzyme activity (proteasome) in C2C12 myotubes; assay: PIF-induced chymotrypsin-like enzyme activity in C2C12 myotubes; type: cell-based, murine; details: AT 100 μM, 4.2 nM PIF
Description: (§1) Protein degradation induced by PIF is mediated through up-regulation of the ubiquitin-proteasome pathway (Tisdale et al., 2004, Br. J. Cancer). […] A hexanoyl ester of AT (lipid soluble AT) has been produced as a slow release form, after hydrolysis by esterase.

[3] = system: Angiotensin II induced chymotrypsin like activity in C2C12 myotubes; assay: Angiotensin II induced chymotrypsin-like activity in C2C12 myotubes; type: cell-based, murine; details: AT 100 μM
Description: as §1

[4] = system: MAC16 tumour-bearing mice; assay: Body weight and gastrocnemius muscle weight in MAC16 tumour-bearing mice (Example 4); type: in vivo, NMRI mice; details: 40 mg/kg s.c., 3 times per day, 5 days
p42 = assay: Western blot of gastrocnemius muscle: p42; type: in vivo, NMRI mice; details: 40 mg/kg s.c., 3 times per day
Experimental: (§2) Administration of alpha-trinositol. Mice (n=6) bearing the MAC16 tumour were treated with AT (40 mg/kg) s.c., 3 times per day, for 5 days, while a control group received PBS. Protein synthesis and degradation were determined by the incorporation and release of L-[2,6-^3H]phenylalanine, as described in Smith et al., Cancer Res., 2005; 65:277-83. On the fourth day of treatment half of the group administered 0.4 mmol/L L-[2,6-^3H]phenylalanine in PBS (100 μl) by i.p. administration.
(§3) Western blot analysis Gastrocnemius muscle (10 mg) was homogenised in Phosphosafe™ Extraction Reagent (500 μl) and centrifuged at 15000 g for 15 min. Samples of the cytosolic proteins (5 μg) were loaded on either a 10% (mTOR, myosin, eIF4E and eIF4G) 12% (PKR, eIF2α and actin) or 15% (4E-BP1) sodium dodecylsulphate-polyacrylamide gel (SDS-PAGE) and electrophoresed at 180 V for approximately 1 h. The extent of phosphorylation of 4E-BP1, and the association of 4E-BP1 and eIF4G with eIF4E was determined by Western blotting when eIF4E was extracted from the muscle samples by m^7GTP-Sepharose 4B-affinity binding, as previously described Eley ey al., Biochem J., 2007; 407:113-20, by loading 20 μg of protein. […] Blots were scanned by a densitometer to quantify differences.

myosin = assay: Western blot of gastrocnemius muscle: myosin; type: in vivo, NMRI mice; details: 40 mg/kg; treatment for 4 days; reduced by 90% in untreated tumour-bearing mice
Experimental: as §2, §3

PKR = assay: Western blot of gastrocnemius muscle: phospho PKR/total PKR; type: in vivo, NMRI mice; details: 40 mg/kg; tumour-bearing animals
Experimental: as §2, §3

mTOR = assay: Western blot of gastrocnemius muscle: phosphorylated (Ser2448) mTOR; type: in vivo, NMRI mice; details: 40 mg/kg; after 4 days treatment
Experimental: as §2, §3

[5] = system: 4E-BP1 associated with eIF4E; assay: Western blot after m7GTP-Sepharose extraction: 4E-BP1 associated with eIF4E; type: in vivo, NMRI mice; details: 40 mg/kg
Experimental: as §2, §3

caspase 3 = assay: Caspase 3 activity in gastrocnemius muscle; type: in vivo, NMRI mice; details: 40 mg/kg; still significantly higher than in non-tumour-bearing animals
Experimental: as §2
(§4) Determination of Caspase activity. The activity of caspase 3 was determined by the release of 7-amino-4-methylcoumarin (AMC) from the specific substrate AcDEVD-AMC in the presence or absence of the caspase 3 inhibitor AcDEVD-CHO. […] The supernatant (50 μg protein) was incubated with the caspase 3 substrate for 1 h and the increase in fluorescence due to AMC was determined at an excilation wavelength of 370 nm and an emission wavelength of 430 nm. […] The increase in fluorescence due to the release of 7-amino-4-trifluoro-methylcoumarin (AFC) was measured with an excitation wavelength of 400 nm and an emission of 505 nm.

caspase 8 = assay: Caspase 8 activity in gastrocnemius muscle; type: in vivo, NMRI mice; details: 40 mg/kg; still significantly higher than in non-tumour-bearing animals
Experimental: as §2, §4

effect on PIF-induced chymotrypsin-like enzyme activity [2]: completely attenuated
effect on Ang II-induced chymotrypsin-like enzyme activity [3]: completely attenuated
SMILES: O=P(O)(O)O[C@@H]1[C@H](OP(=O)(O)O)[C@H](O)[C@@H](O)[C@H](O)[C@H]1OP(=O)(O)O [alpha-trinositol, 1-D-Myo-inositol 1,2,6-triphosphate]
effect on Ang II-induced protein degradation [1]: completely attenuated protein degradation down to basal levels
gastrocnemius muscle weight compared to the control [4]: significantly higher
weight loss compared to the control group [4]: significantly lower
expression of p42 in gastrocnemius muscle (p42): down-regulates
myosin expression in gastrocnemius muscle (myosin): returned to values at the same level as in non-tumour animals
expression of phospho PKR (ratio phosphoPKR/total PKR) (PKR): significant decrease
level of the phosphorylated (Ser2448) form of mTOR in gastrocnemius muscle (mTOR): completely reversed up to the values found in non tumour-bearing animals
tumour-induced increase of 4E-BP1 associated with eIF4E [5]: completely attenuated
activity of caspase-3 in gastrocnemius muscle (caspase 3): significantly reduced
activity of caspase-8 in gastrocnemius muscle (caspase 8): significantly reduced
